Results published in patent publication US20070185084A1, “COMPOSITIONS OF AN ANTICONVULSANT AND METHODS OF USING THE SAME FOR REVERSING WEIGHT GAIN” (Orexigen Therapeutics, Inc., priority 2006, published 2007).
Entries after “also recorded” stand apart in the source; their conditions may differ. Like-named read-outs stand apart in the source and are kept apart here.

Experiments:
[1] = Example 10: co-treatment with zonisamide in rodent model of olanzapine-induced weight gain (body weight, food intake); type: in vivo, Sprague-Dawley rats
Description: Female Sprague-Dawley rats, weighing about 235 grams at the start of the experiment were used. They were trained to sham injections, using the zonisamide vehicle for 2 weeks before the study commenced. Under isoflurane anesthesia, Alzet osmotic minipumps (2 ml2) were implanted subcutaneously, between the shoulder blades. The rats were subsequently returned to their home cages after recovery. The minipumps delivered 5 μL per hour for 14 days. […] The animals were housed individually and supplied with standard laboratory chow. Food consumed and animal weights were recorded every days. […] Rats were allowed to recover after pump implantation, and then received twice daily injections of zonisamide 26 mg/kg.

[2] = Example 11: zonisamide started one week after olanzapine pump implantation in rodent model of olanzapine-induced weight gain; type: in vivo, rats
Description: Female Sprague-Dawley rats, weighing about 235 grams at the start of the experiment were used. They were trained to sham injections, using the zonisamide vehicle for 2 weeks before the study commenced. Under isoflurane anesthesia, Alzet osmotic minipumps (2 ml2) were implanted subcutaneously, between the shoulder blades. The rats were subsequently returned to their home cages after recovery. The minipumps delivered 5 μL per hour for 14 days. Olanzapine was dissolved in 1.5% lactic acid in dH2O. Zonisamide was dissolved in 10% DMSO, 13.4% EtOH, 20.1% PPG, and […]. Olanzapine dose was 1.75 mg/day via the minipump. The animals were housed individually and supplied with standard laboratory chow. Food consumed and animal weights were recorded every days. There were 5 animals in the control (vehicle) group, 5 animals in the zonisamide only group, 4 animals in the olanzapine only group, and 6 animals in the olanzapine+zonisamide group.
Rats were allowed to recover after pump implantation, and then received twice daily injections of zonisamide 26 mg/kg. Their food intake and body weight were calculated daily for 15 days.
The protocol used was the same as described in Example 12, with the exception that the treatment with zonisamide began one week after implantation of the olanzapine osmotic pumps, and food intake and body weight were calculated daily for 10 days.

[3] = cited from earlier work
[4] = Example 13 case study: zonisamide in patient with weight gain on paroxetine and risperidone; type: in vivo, human
Description: They were therefore started on zonisamide 100 mg, increased to 200 mg. […] The dose was then increased to 300 mg and then to 600 mg.

[5] = Example 12 case study: zonisamide added to clonazepam, fluoxetine and lamotrogine, bipolar patient; type: in vivo, human; details: zonisamide 100 mg qD added to clonazepam, fluoxetine, lamotrogine; person
Description: A person having biopolar disorder, Type I, had been treated for just over year by their psychiatrist using clonazepam 1 mg qHS, fluoxetine 20 mg qd, and lamotrogine 300 mg qD. One particular complaint was that they had “constant thoughts of eating”. Their psychiatrist started them on zonisamide 100 mg qD. […] The dose was continued and despite multiple stressors at home, they continued to do well on the treatment regimen.

[6] = Example 14 case study: bupropion and zonisamide added to olanzapine and valproate; type: in vivo, human
Description: At this point, zonisamide was added to their medication regimen at 100 mg/day and the dose was increased to 200 mg/day after two weeks.

[7] = test system: Proopiomelanocortin (POMC) neurons; assay: Electrophysiology: action current frequency of POMC neurons in brain slices, loose cell attached patch; type: cell-based, POMC-EGFP mice; details: for frequency of action currents (activity) of POMC neurons: zonisamide 10 μM, FIG. 1
Description: The electrophysiological activity of Proopiomelanocortin (POMC) neurons in brain slices from POMC-EGFP mice was recorded. The POMC neurons in these mice are identified by the expression of green fluorescent protein (EGFP) in these, and only these, cells. The frequency of action potentials in these neurons were recorded using standard electrophysiological techniques. In particular, loose cell attached patch configuration is used to determine action current frequency, whilst minimally disturbing the cells.
The basal activity was recorded, and then olanzapine (100 nM) was added to the tissue bath to determine the effect of olanzapine on the activity of POMC neurons. […] Then the effect of zonisamide on the reduction in activity caused by […] was tested by adding olanzapine plus zonisamide (10 μM) to the bath.

[8] = Day 1.00, rats, olanzapine 1.75 mg/day minipump, zonisamide 26 mg/kg twice daily
[9] = Day 7.00, rats, zonisamide begun one week after olanzapine pump implantation
[10] = zonisamide added to olanzapine, valproate, bupropion

Structure (SMILES): Cc1cc2c(s1)Nc1ccccc1N=C2N1CCN(C)CC1 [Olanzapine, olanzapine]
- Change in Food Intake Post Pump Implant, Mean [1, 8]: 16.56
- Cumulative Change in Body Weight, Mean [1, 8]: 7.44
- Change in Food Intake Post Pump Implant, Mean ([1]; Day 2.00): 39.82
- Cumulative Change in Body Weight, Mean ([1]; Day 4.00): 21.04
- Change in Food Intake Post Pump Implant, Mean ([1]; Day 5.00): 62.30
- Cumulative Change in Body Weight, Mean ([1]; Day 5.00): 19.22
- Change in Food Intake Post Pump Implant, Mean ([1]; Day 6.00): 86.14
- Cumulative Change in Body Weight, Mean ([1]; Day 6.00): 20.56
- Change in Food Intake Post Pump Implant, Mean ([1]; Day 7.00): 105.74
- Cumulative Change in Body Weight, Mean ([1]; Day 7.00): 30.88
- Change in Food Intake Post Pump Implant, Mean ([1]; Day 8.00): 119.30
- Cumulative Change in Body Weight, Mean ([1]; Day 8.00): 27.56
- Change in Food Intake Post Pump Implant, Mean ([1]; Day 9.00): 144.98
- Cumulative Change in Body Weight, Mean ([1]; Day 9.00): 32.94
- Change in Food Intake Post Pump Implant, Mean ([1]; Day 10.00): 161.16
- Cumulative Change in Body Weight, Mean ([1]; Day 10.00): 34.98
- Change in Food Intake Post Pump Implant, Mean ([1]; Day 11.00): 180.96
- Cumulative Change in Body Weight, Mean ([1]; Day 11.00): 33.40
- Change in Food Intake Post Pump Implant, Mean ([1]; Day 12.00): 201.42
- Cumulative Change in Body Weight, Mean ([1]; Day 12.00): 40.76
- Change in Food Intake Post Pump Implant, Mean ([1]; Day 13.00): 224.38
- Cumulative Change in Body Weight, Mean ([1]; Day 13.00): 38.84
- Change in Food Intake Post Pump Implant, Mean ([1]; Day 14.00): 241.48
- Cumulative Change in Body Weight, Mean ([1]; Day 14.00): 43.28
- Cumulative Change in Body Weight, Mean ([1]; Day 15.00): 41.64
- Cumulative Change in Body Weiglt Post-Pump Implant, Mean [2, 9]: −0.46
- Cumulative Change in Food Intake Post-Pump Implant, Mean [2, 9]: 13.39
- Cumulative Change in Body Weiglt Post-Pump Implant, Mean ([2]; Day 8.00): −11.55
- Cumulative Change in Food Intake Post-Pump Implant, Mean ([2]; Day 8.00): 18.36
- Cumulative Change in Body Weiglt Post-Pump Implant, Mean ([2]; Day 9.00): 4.28
- Cumulative Change in Food Intake Post-Pump Implant, Mean ([2]; Day 9.00): 57.46
- Cumulative Change in Body Weiglt Post-Pump Implant, Mean ([2]; Day 10.00): 11.88
- Cumulative Change in Food Intake Post-Pump Implant, Mean ([2]; Day 10.00): 124.58
- Cumulative Change in Body Weiglt Post-Pump Implant, Mean ([2]; Day 11.00): 13.48
- Cumulative Change in Food Intake Post-Pump Implant, Mean ([2]; Day 11.00): 145.5
- Cumulative Change in Body Weiglt Post-Pump Implant, Mean ([2]; Day 12.00): 11.8
- Cumulative Change in Food Intake Post-Pump Implant, Mean ([2]; Day 12.00): 163.6
- Cumulative Change in Body Weiglt Post-Pump Implant, Mean ([2]; Day 13.00): 15.55
- Cumulative Change in Food Intake Post-Pump Implant, Mean ([2]; Day 13.00): 181.05
- Cumulative Change in Body Weiglt Post-Pump Implant, Mean ([2]; Day 14.00): 20.4
- Cumulative Change in Food Intake Post-Pump Implant, Mean ([2]; Day 14.00): 200.9
- Cumulative Change in Body Weiglt Post-Pump Implant, Mean ([2]; Day 15.00): 17.98
- Cumulative Change in Food Intake Post-Pump Implant, Mean ([2]; Day 15.00): 218.2
- Cumulative Change in Body Weiglt Post-Pump Implant, Mean ([2]; Day 16.00): 21.22
- Cumulative Change in Food Intake Post-Pump Implant, Mean ([2]; Day 16.00): 236.95

Structure (SMILES): NS(=O)(=O)Cc1noc2ccccc12 [Zonisamide, zonisamide]
- weight loss ([3]; patients presenting with primary obesity): significant weight loss
- tolerability ([3]; versus placebo treatment): well tolerated
- Change in Food Intake Post Pump Implant, Mean [1, 8]: 12.48
- Cumulative Change in Body Weight, Mean [1, 8]: 9.74
- Change in Food Intake Post Pump Implant, Mean ([1]; Day 2.00): 30.10
- Cumulative Change in Body Weight, Mean ([1]; Day 4.00): 20.24
- Change in Food Intake Post Pump Implant, Mean ([1]; Day 5.00): 46.02
- Cumulative Change in Body Weight, Mean ([1]; Day 5.00): 17.60
- Change in Food Intake Post Pump Implant, Mean ([1]; Day 6.00): 58.24
- Cumulative Change in Body Weight, Mean ([1]; Day 6.00): 19.34
- Change in Food Intake Post Pump Implant, Mean ([1]; Day 7.00): 72.10
- Cumulative Change in Body Weight, Mean ([1]; Day 7.00): 20.18
- Change in Food Intake Post Pump Implant, Mean ([1]; Day 8.00): 86.88
- Cumulative Change in Body Weight, Mean ([1]; Day 8.00): 17.32
- Change in Food Intake Post Pump Implant, Mean ([1]; Day 9.00): 104.86
- Cumulative Change in Body Weight, Mean ([1]; Day 9.00): 13.66
- Change in Food Intake Post Pump Implant, Mean ([1]; Day 10.00): 123.66
- Cumulative Change in Body Weight, Mean ([1]; Day 10.00): 14.62
- Change in Food Intake Post Pump Implant, Mean ([1]; Day 11.00): 140.40
- Cumulative Change in Body Weight, Mean ([1]; Day 11.00): 16.46
- Change in Food Intake Post Pump Implant, Mean ([1]; Day 12.00): 160.36
- Cumulative Change in Body Weight, Mean ([1]; Day 12.00): 21.08
- Change in Food Intake Post Pump Implant, Mean ([1]; Day 13.00): 177.70
- Cumulative Change in Body Weight, Mean ([1]; Day 13.00): 24.26
- Change in Food Intake Post Pump Implant, Mean ([1]; Day 14.00): 186.25
- Cumulative Change in Body Weight, Mean ([1]; Day 14.00): 27.52
- Cumulative Change in Body Weight, Mean ([1]; Day 15.00): 25.70
- effect on the weight gain associated with olanzapine ([1]; zonisamide added to concomitant olanzapine treatment, rats): decrease the weight gain associated with olanzapine
- Cumulative Change in Body Weiglt Post-Pump Implant, Mean [2, 9]: −1.73
- Cumulative Change in Food Intake Post-Pump Implant, Mean [2, 9]: 13.15
- Cumulative Change in Body Weiglt Post-Pump Implant, Mean ([2]; Day 8.00): −11.38
- Cumulative Change in Food Intake Post-Pump Implant, Mean ([2]; Day 8.00): 18.62
- Cumulative Change in Body Weiglt Post-Pump Implant, Mean ([2]; Day 9.00): −1.28
- Cumulative Change in Food Intake Post-Pump Implant, Mean ([2]; Day 9.00): 46.87
- Cumulative Change in Body Weiglt Post-Pump Implant, Mean ([2]; Day 10.00): 5.8
- Cumulative Change in Food Intake Post-Pump Implant, Mean ([2]; Day 10.00): 101.08
- Cumulative Change in Body Weiglt Post-Pump Implant, Mean ([2]; Day 11.00): 6.37
- Cumulative Change in Food Intake Post-Pump Implant, Mean ([2]; Day 11.00): 116.93
- Cumulative Change in Body Weiglt Post-Pump Implant, Mean ([2]; Day 12.00): 0.86
- Cumulative Change in Food Intake Post-Pump Implant, Mean ([2]; Day 12.00): 126.64
- Cumulative Change in Body Weiglt Post-Pump Implant, Mean ([2]; Day 13.00): −4.79
- Cumulative Change in Food Intake Post-Pump Implant, Mean ([2]; Day 13.00): 133.95
- Cumulative Change in Body Weiglt Post-Pump Implant, Mean ([2]; Day 14.00): −11.79
- Cumulative Change in Food Intake Post-Pump Implant, Mean ([2]; Day 14.00): 141.09
- Cumulative Change in Body Weiglt Post-Pump Implant, Mean ([2]; Day 15.00): −10.3
- Cumulative Change in Food Intake Post-Pump Implant, Mean ([2]; Day 15.00): 153.61
- Cumulative Change in Body Weiglt Post-Pump Implant, Mean ([2]; Day 16.00): −9.37
- Cumulative Change in Food Intake Post-Pump Implant, Mean ([2]; Day 16.00): 167.93
- effect on olanzapine-induced weight gain ([2]; zonisamide one week after implantation of olanzapine pumps, rats): decrease the weight gain associated with olanzapine; also recorded: reversed olanzapine-induced weight gain
- psychiatric symptoms ([4]; on zonisamide): improved
- weight lost ([4]; zonisamide 100 mg, increased to 200 mg, in 3 weeks): 12 pounds
- weight ([4]; zonisamide increased to 300 mg and then 600 mg, in 5 months): returned to baseline
- craving for food [5]: significantly reduced their craving for food
- weight gain [5]: prevented weight gain
- weight lost ([6]; zonisamide 100 mg/day, 200 mg/day after two weeks, added to regimen, over the next 4 months): 15 lbs
- adverse effects reported [6, 10]: no adverse effects
- bipolar disorder symptoms [6, 10]: remained free of bipolar disorder symptoms
- activity of POMC neurons inhibited by olanzapine ([7]; olanzapine plus zonisamide (10 μM) in the bath, FIG. 3): reversed the inhibition of POMC neurons
- frequency of action currents (activity) of POMC neurons [7]: reversibly increased the activity of POMC neurons
- frequency of action currents (activity) of POMC neurons ([7]; listed as zonisamide): increases the activity of POMC neurons

Structure (SMILES): CC(NC(C)(C)C)C(=O)c1cccc(Cl)c1 (stereo not shown) [bupropion]
- weight loss ([4]; trial of bupropion alone): did not cause significant weight loss
- weight lost ([6]; bupropion 150 mg/day added to olanzapine and valproate, after 6 months): 23.6 lbs
- adverse effect reported ([6]; bupropion dose raised to 300 mg/day): feeling hyperactive
- weight regained ([6]; while continuing bupropion, over the next 10 months): 10.6 lbs
